Consider 20 compounds from patent publication US12577206B2 (BRISTOL-MYERS SQUIBB COMPANY, priority 2020, dated 2026).

One assay has as its target T1, human FPR1 (Homo sapiens, UniProt P21462).
T1 sequence (P21462 1-350): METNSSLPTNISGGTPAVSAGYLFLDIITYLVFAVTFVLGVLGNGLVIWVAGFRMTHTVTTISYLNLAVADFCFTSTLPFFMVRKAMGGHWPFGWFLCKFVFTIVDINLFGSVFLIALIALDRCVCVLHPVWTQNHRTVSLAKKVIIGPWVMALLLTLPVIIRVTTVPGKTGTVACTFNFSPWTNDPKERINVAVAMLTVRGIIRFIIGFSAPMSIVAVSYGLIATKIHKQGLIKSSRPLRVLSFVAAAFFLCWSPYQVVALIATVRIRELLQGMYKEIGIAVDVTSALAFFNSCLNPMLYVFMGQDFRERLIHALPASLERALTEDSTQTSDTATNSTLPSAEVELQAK
The experiment in a line: FPR1 cyclic adenosine monophosphate (cAMP) assay. It counts as cell-based. To be noted: CHO cells overexpressing human FPR1; forskolin 10 μM; inhibition of cAMP production; HTRF; read-out: hFPR1 cAMP2 EC50. The procedure, abridged:
(§1)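 Inhibition of forskolin-stimulated cAMP (final forskolin 5 μM for FPR2, 10 μM for FPR1; IBMX 200 μM) was measured by HTRF in recombinant CHO cells after 30 min at room temperature.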
Background: Changes in cAMP serve as a functional read-out for many G protein-coupled receptors.

The target of a further assay is T2, human FPR2 (Homo sapiens, UniProt P25090).
T2 sequence (P25090 1-351): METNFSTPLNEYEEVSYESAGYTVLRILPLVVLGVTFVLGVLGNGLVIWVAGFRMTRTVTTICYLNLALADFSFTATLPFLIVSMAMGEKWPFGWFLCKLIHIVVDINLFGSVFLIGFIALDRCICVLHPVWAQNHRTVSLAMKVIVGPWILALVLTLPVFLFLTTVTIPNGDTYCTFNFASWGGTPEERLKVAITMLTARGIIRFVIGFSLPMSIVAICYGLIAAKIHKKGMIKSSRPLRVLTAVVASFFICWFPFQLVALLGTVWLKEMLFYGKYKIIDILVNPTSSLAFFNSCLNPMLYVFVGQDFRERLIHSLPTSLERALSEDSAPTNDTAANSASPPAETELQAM
Nature of the assay: FPR2 cyclic adenosine monophosphate (cAMP) assay. Type of assay: cell-based. The note with it: CHO cells overexpressing human FPR2; forskolin 5 μM; inhibition of cAMP production; HTRF; read-out: hFPR2 cAMP2 EC50. The procedure, abridged:
as §1

SMILES strings stand for the structures.

Turning to `COc1cc(F)c(-c2c(NC(=O)c3ccc(OC(F)F)cc3)c(=O)n(-c3cccc(Cl)n3)n2C)c(F)c1` [Example 39, N-[2-(6-chloropyridin-2-yl)-5-(2,6-difluoro-4-methoxyphenyl)-1-methyl-3-oxo-2,3-dihydro-1H-pyrazol-4-yl]-4-(difluoromethoxy)benzamide], the EC50 (usually the concentration that produces a half-maximal response) on human FPR1 was 3000 nM; on human FPR2, 14 nM.

On to `COc1cc(F)c(-c2c(NC(=O)c3ccc(OC(F)F)cc3)c(=O)n(-c3cccc(C4CC4)c3)n2C)c(F)c1` [Example 111, N-[2-(3-cyclopropylphenyl)-5-(2,6-difluoro-4-methoxyphenyl)-1-methyl-3-oxo-2,3-dihydro-1H-pyrazol-4-yl]-4-(difluoromethoxy)benzamide], for which the EC50 on human FPR1 was 2 nM; at human FPR2, 4 nM.

In the case of `COc1cc(F)c(-c2c(NC(=O)c3ccc(OC(F)F)cc3)c(=O)n(-c3ncccc3Cl)n2C)c(F)c1` [Example 197, N-[2-(3-chloropyridin-2-yl)-5-(2,6-difluoro-4-methoxyphenyl)-1-methyl-3-oxo-2,3-dihydro-1H-pyrazol-4-yl]-4-(difluoromethoxy)benzamide], the EC50 is greater than 10000 nM at human FPR1 and 16 nM on human FPR2.

Take `COc1cc(F)c(-c2c(NC(=O)c3ccc(OC(F)F)cc3)c(=O)n(-c3cc(Cl)cc(OC(F)(F)F)c3)n2C)c(F)c1` [Example 123, N-{2-[3-chloro-5-(trifluoromethoxy)phenyl]-5-(2,6-difluoro-4-methoxyphenyl)-1-methyl-3-oxo-2,3-dihydro-1H-pyrazol-4-yl}-4-(difluoromethoxy)benzamide]: the EC50 on human FPR1 is greater than 10000 nM; on human FPR2, 19 nM.

With `CCOc1cccc(-n2c(=O)c(NC(=O)c3ccc(OC(F)F)cc3)c(-c3c(F)cc(OC)cc3F)n2C)c1` [Example 118, N-[5-(2,6-difluoro-4-methoxyphenyl)-2-(3-ethoxyphenyl)-1-methyl-3-oxo-2,3-dihydro-1H-pyrazol-4-yl]-4-(difluoromethoxy)benzamide], the EC50 at human FPR1 turned out to be 3 nM; on human FPR2, 6 nM.

`COc1cc(F)c(-c2c(NC(=O)c3ccc(C(F)(F)F)cc3)c(=O)n(-c3ccc(F)cc3)n2C)c(F)c1` [Example 17, N-[5-(2,6-difluoro-4-methoxyphenyl)-2-(4-fluorophenyl)-1-methyl-3-oxo-2,3-dihydro-1H-pyrazol-4-yl]-4-(trifluoromethyl)benzamide]: the results for the EC50 on human FPR1 and at human FPR2 were 1700 nM and 51 nM, respectively.

For `COc1cc(F)c(-c2c(NC(=O)c3ccc(OC(F)(F)F)cc3)c(=O)n(-c3ncccc3F)n2C)c(F)c1` [Example 32, N-[5-(2,6-difluoro-4-methoxyphenyl)-2-(3-fluoropyridin-2-yl)-1-methyl-3-oxo-2,3-dihydro-1H-pyrazol-4-yl]-4-(trifluoromethoxy)benzamide], the results for the EC50 at human FPR1 and at human FPR2 were 6500 nM and 8 nM, respectively.

Take `COc1cc(C2CCOCC2)nc(-n2c(=O)c(NC(=O)c3ccc(OC(F)F)cc3)c(-c3c(F)cc(OC)cc3F)n2C)c1` [Example 345, N-(5-(2,6-Difluoro-4-methoxyphenyl)-2-(4-methoxy-6-(tetrahydro-2H-pyran-4-yl)pyridin-2-yl)-1-methyl-3-oxo-2,3-dihydro-1H-pyrazol-4-yl)-4-(difluoromethoxy)benzamide]: the EC50 is greater than 10000 nM at human FPR1 and 5 nM at human FPR2.

Consider `COc1cc(F)c(-c2c(NC(=O)c3ccc(OC(F)F)cc3)c(=O)n(-c3cc(C)cc(OCC4(C)COC4)n3)n2C)c(F)c1` [Example 353, N-(5-(2,6-Difluoro-4-methoxyphenyl)-1-methyl-2-(4-methyl-6-((3-methyloxetan-3-yl)methoxy)pyridin-2-yl)-3-oxo-2,3-dihydro-1H-pyrazol-4-yl)-4-(difluoromethoxy)benzamide], for which the EC50 was determined as 1600 nM at human FPR1 and 2 nM on human FPR2.

Take `COc1cc(F)c(-c2c(NC(=O)c3ccc(OC(F)F)cc3)c(=O)n(-c3nc(N(C)C)ccc3Cl)n2C)c(F)c1` [Example 147, N-{2-[3-chloro-6-(dimethylamino)pyridin-2-yl]-5-(2,6-difluoro-4-methoxyphenyl)-1-methyl-3-oxo-2,3-dihydro-1H-pyrazol-4-yl}-4-(difluoromethoxy)benzamide]: the EC50 at human FPR1 worked out at 730 nM; on human FPR2, 3 nM.

Regarding `COc1cc(F)c(-c2c(NC(=O)c3ccc(OC(F)F)cc3)c(=O)n(-c3nc(Cl)ccc3C(F)(F)F)n2C)c(F)c1` [Example 222, N-{2-[6-chloro-3-(trifluoromethyl)pyridin-2-yl]-5-(2,6-difluoro-4-methoxyphenyl)-1-methyl-3-oxo-2,3-dihydro-1H-pyrazol-4-yl}-4-(difluoromethoxy)benzamide], the figures for the EC50 on human FPR1 and on human FPR2 were greater than 10000 nM and 5 nM, respectively.

Take `COc1cc(F)c(-c2c(NC(=O)c3ccc(OC(F)F)cc3)c(=O)n(-c3cccc(C(C)O)n3)n2C)c(F)c1` (stereo not shown) [Example 86, N-[5-(2,6-difluoro-4-methoxyphenyl)-2-[6-(1-hydroxyethyl)pyridin-2-yl]-1-methyl-3-oxo-2,3-dihydro-1H-pyrazol-4-yl]-4-(difluoromethoxy)benzamide]: the results for the EC50 on human FPR1 and on human FPR2 were 1400 nM and 10 nM, respectively.

Consider `COc1cc(F)c(-c2c(NC(=O)c3ccc(OC(F)F)cc3)c(=O)n(-c3cccc(CN4CCN(C)CC4)n3)n2C)c(F)c1` [Example 205, N-[5-(2,6-difluoro-4-methoxyphenyl)-1-methyl-2-{6-[(4-methylpiperazin-1-yl)methyl]pyridin-2-yl}-3-oxo-2,3-dihydro-1H-pyrazol-4-yl]-4-(difluoromethoxy)benzamide], for which the EC50 at human FPR1 was greater than 10000 nM; at human FPR2, 25 nM.

Consider `COc1cc(F)c(-c2c(NC(=O)c3ccc(OC(F)F)cc3)c(=O)n(-c3nc(N4CCN(C)CC4)ccc3F)n2C)c(F)c1` [Example 219, N-[5-(2,6-difluoro-4-methoxyphenyl)-2-[3-fluoro-6-(4-methylpiperazin-1-yl)pyridin-2-yl]-1-methyl-3-oxo-2,3-dihydro-1H-pyrazol-4-yl]-4-(difluoromethoxy)benzamide], for which the EC50 on human FPR1 was determined as 3200 nM; on human FPR2 it was 10 nM.

Regarding `COc1cc(F)c(-c2c(NC(=O)c3ccc(OC(F)(F)F)cc3)c(=O)n(-c3cc(C)cc(C)n3)n2C)c(F)c1` [Example 66, N-[5-(2,6-difluoro-4-methoxyphenyl)-2-(4,6-dimethylpyridin-2-yl)-1-methyl-3-oxo-2,3-dihydro-1H-pyrazol-4-yl]-4-(trifluoromethoxy)benzamide], the EC50 on human FPR1 amounted to 2500 nM; on human FPR2 it was 8 nM.

With `COc1cc(F)c(-c2c(NC(=O)c3ccc(OC(F)F)cc3)c(=O)n(-c3cccc(C(F)(F)F)n3)n2C)c(F)c1` [Example 156, N-[5-(2,6-difluoro-4-methoxyphenyl)-1-methyl-3-oxo-2-[6-(trifluoromethyl)pyridin-2-yl]-2,3-dihydro-1H-pyrazol-4-yl]-4-(difluoromethoxy)benzamide], the EC50 at human FPR1 came to 4000 nM; on human FPR2 it was 15 nM.

As for `COc1cc(F)c(-c2c(NC(=O)c3ccc(OC(F)(F)F)cc3)c(=O)n(-c3cccc(-c4ccccc4)n3)n2C)c(F)c1` [Example 73, N-[5-(2,6-difluoro-4-methoxyphenyl)-1-methyl-3-oxo-2-(6-phenylpyridin-2-yl)-2,3-dihydro-1H-pyrazol-4-yl]-4-(trifluoromethoxy)benzamide], the EC50 at human FPR1 was 950 nM; at human FPR2, 13 nM.

`COc1cc(F)c(-c2c(NC(=O)c3ccc(OC(F)F)cc3)c(=O)n(-c3cc(Cl)ccn3)n2C)c(F)c1` [Example 152, N-[2-(4-chloropyridin-2-yl)-5-(2,6-difluoro-4-methoxyphenyl)-1-methyl-3-oxo-2,3-dihydro-1H-pyrazol-4-yl]-4-(difluoromethoxy)benzamide]: the EC50 on human FPR1 was greater than 10000 nM; at human FPR2 it was 10 nM.

Consider `COc1ccc(-c2c(NC(=O)c3ccc(OC(F)F)cc3)c(=O)n(-c3ncccc3Cl)n2C)c(F)c1` [Example 262, N-[2-(3-chloropyridin-2-yl)-5-(2-fluoro-4-methoxyphenyl)-1-methyl-3-oxo-2,3-dihydro-1H-pyrazol-4-yl]-4-(difluoromethoxy)benzamide], for which the figures for the EC50 on human FPR1 and at human FPR2 were 2000 nM and 25 nM, respectively.

Regarding `COc1cc(F)c(-c2c(NC(=O)c3ccc(OC(F)(F)F)cc3)c(=O)n(-c3ccccc3F)n2C)c(F)c1` [Example 28, N-[5-(2,6-difluoro-4-methoxyphenyl)-2-(2-fluorophenyl)-1-methyl-3-oxo-2,3-dihydro-1H-pyrazol-4-yl]-4-(trifluoromethoxy)benzamide], the EC50 stood at 2500 nM at human FPR1 and 10 nM at human FPR2.
